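48-hour exposure; five concentrations; linearly interpolated endpoints. The concentration for 50% growth inhibition is given as GI50.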 The source made the active and inactive calls. Rule as the data show it: active = GI50 up to about 1.1 µM and inactive = higher.
Experiments:
Assay in all cases: inhibition of tumour cell growth, NCI panel, 48 h
SR = test system: SR
IGROV-1 = test system: IGROV-1
KM12 = test system: KM12
NCI-H226 = test system: NCI-H226
SF-539 = test system: SF-539
OVCAR-5 = test system: OVCAR-5
ACHN = test system: ACHN
Hs-578T = test system: Hs-578T
UACC-257 = test system: UACC-257
HOP-62 = test system: HOP-62
LOX IMVI = test system: LOX IMVI
NCI-H23 = test system: NCI-H23
SNB-19 = test system: SNB-19
HCC 2998 = test system: HCC 2998
MCF7 = test system: MCF7
SK-MEL-2 = test system: SK-MEL-2
MOLT-4 = test system: MOLT-4
HCT-15 = test system: HCT-15
SK-OV-3 = test system: SK-OV-3
EKVX = test system: EKVX

Compound | GI50 (SR) | GI50 (IGROV-1) | GI50 (KM12) | GI50 (NCI-H226) | GI50 (SF-539) | GI50 (OVCAR-5) | GI50 (ACHN) | GI50 (Hs-578T) | GI50 (UACC-257) | GI50 (HOP-62) | GI50 (LOX IMVI) | GI50 (NCI-H23) | GI50 (SNB-19) | GI50 (HCC 2998) | GI50 (MCF7) | GI50 (SK-MEL-2) | GI50 (MOLT-4) | GI50 (HCT-15) | GI50 (SK-OV-3) | GI50 (EKVX)
CC(=O)NC1C(OC(C)C(=O)NC(C)C(=O)NC(CCC(=O)NCCCCCNc2ccc([N+](=O)[O-])c3[nH]c4ccccc4c(=O)c23)C(N)=O)C(O)C(CO)OC1(C)OCc1ccccc1 (centres undefined) | 14 µM (inactive) | 64.1 µM (inactive) | 79.3 µM (inactive) | 89.9 µM (inactive) | 64.1 µM (inactive) | > 100 µM (inactive) | > 100 µM (inactive) | > 100 µM (inactive) | > 100 µM (inactive) | 89.7 µM (inactive) | > 100 µM (inactive) | > 100 µM (inactive) | > 100 µM (inactive) | > 100 µM (inactive) | 73.3 µM (inactive) | > 100 µM (inactive) | 24.8 µM (inactive) | 73.8 µM | > 100 µM (inactive) | > 100 µM (inactive)
COc1cc(/C=C2\CCC/C(=C\c3cc(OC)c(O)c(OC)c3)C2=O)cc(OC)c1O | 3.8 µM (inactive) | 1.22 µM (inactive) | 1.38 µM (inactive) | 10.4 µM (inactive) | 2.16 µM (inactive) | 2.05 µM (inactive) | 1.22 µM (inactive) | 3.75 µM (inactive) | 3.42 µM (inactive) | 1.8 µM (inactive) | 1.91 µM (inactive) | 1.35 µM (inactive) | 1.81 µM (inactive) | 1.35 µM (inactive) | 3.12 µM (inactive) | 2.4 µM (inactive) | 4.38 µM (inactive) | 1.52 µM | 1.81 µM (inactive) | 4.5 µM (inactive)
Cc1nc2c(sc3nc4ccccc4n32)c(=O)[nH]1 | > 100 µM (inactive) | > 100 µM (inactive) | > 100 µM (inactive) | > 100 µM (inactive) | > 100 µM (inactive) | > 100 µM (inactive) | > 100 µM (inactive) | > 100 µM (inactive) | > 100 µM (inactive) | > 100 µM (inactive) | > 100 µM (inactive) | > 100 µM (inactive) | > 100 µM (inactive) | > 100 µM (inactive) | > 100 µM (inactive) | > 100 µM (inactive) | > 100 µM (inactive) | > 100 µM | 73.1 µM (inactive) | > 100 µM (inactive)
COC(=O)C1Cc2c(C)cccc2C1=O (centres undefined) | 50.8 µM (inactive) | > 100 µM (inactive) | > 100 µM (inactive) | > 100 µM (inactive) | > 100 µM (inactive) | > 100 µM (inactive) | > 100 µM (inactive) | > 100 µM (inactive) | > 100 µM (inactive) | > 100 µM (inactive) | 88.9 µM (inactive) | > 100 µM (inactive) | > 100 µM (inactive) | > 100 µM (inactive) | > 100 µM (inactive) | > 100 µM (inactive) | > 100 µM (inactive) | > 100 µM | > 100 µM (inactive) | > 100 µM (inactive)
Fc1cc2nc3n(c2cc1F)C(c1c(Cl)cccc1Cl)SC3 (centres undefined) | 4.51 µM (inactive) | 18.5 µM (inactive) | 13.4 µM (inactive) | 24.7 µM (inactive) | 20.5 µM (inactive) | 14.3 µM (inactive) | 17.5 µM (inactive) | 18.4 µM (inactive) | 13.6 µM (inactive) | 16 µM (inactive) | 16.3 µM (inactive) | 16.6 µM (inactive) | 14 µM (inactive) | 15.8 µM (inactive) | 16.5 µM (inactive) | 17.1 µM (inactive) | 24.4 µM (inactive) | 17.5 µM | 16.5 µM (inactive) | 18.4 µM (inactive)
COc1cc(CNCc2cc(OC)c(OC)c(OC)c2)cc(OC)c1OC | > 5.38 µM (inactive) | > 10 µM (inactive) | > 10 µM (inactive) | > 10 µM (inactive) | > 10 µM (inactive) | > 10 µM (inactive) | > 10 µM (inactive) | > 10 µM (inactive) | > 10 µM (inactive) | > 10 µM (inactive) | > 8.38 µM (inactive) | > 10 µM (inactive) | > 10 µM (inactive) | > 10 µM (inactive) | > 10 µM (inactive) | > 10 µM (inactive) | > 5.7 µM (inactive) | > 10 µM | > 10 µM (inactive) | > 10 µM (inactive)
O=C1c2cccc3cc4ccccc4c(c23)C(=O)N1CCCNCCNCCCN1C(=O)c2cccc3cc4ccccc4c(c23)C1=O | < 0.01 µM (active) | 0.0139 µM (active) | 0.106 µM (active) | 0.411 µM (active) | 0.142 µM (active) | 0.257 µM (active) | < 0.0227 µM (active) | 0.0635 µM (active) | 1.02 µM (active) | 0.0203 µM (active) | < 0.01 µM (active) | 0.0509 µM (active) | 0.217 µM (active) | 0.0964 µM (active) | 0.0191 µM (active) | 0.338 µM (active) | < 0.01 µM (active) | 0.103 µM | 0.31 µM (active) | 1.15 µM (inactive)
CC12CC(Br)(Br)C(=O)C3C1CCCC32 | 4.43 µM (inactive) | 10.1 µM (inactive) | 13 µM (inactive) | 11.3 µM (inactive) | 11.9 µM (inactive) | 17.8 µM (inactive) | 5.27 µM (inactive) | 12.6 µM (inactive) | 8.65 µM (inactive) | 17.5 µM (inactive) | 2.68 µM (inactive) | 6.46 µM (inactive) | 14.2 µM (inactive) | 6.89 µM (inactive) | 4.33 µM (inactive) | 13.9 µM (inactive) | 1.67 µM (inactive) | 3.61 µM | 15.3 µM (inactive) | 7.1 µM (inactive)
Nc1ncnc2c1ncn2[C@H]1CC[C@@H](NO)C1 | > 100 µM (inactive) | > 100 µM (inactive) | > 100 µM (inactive) | > 100 µM (inactive) | > 100 µM (inactive) | > 100 µM (inactive) | > 100 µM (inactive) | > 100 µM (inactive) | > 100 µM (inactive) | > 100 µM (inactive) | > 100 µM (inactive) | > 100 µM (inactive) | > 100 µM (inactive) | > 100 µM (inactive) | > 100 µM (inactive) | > 100 µM (inactive) | > 100 µM (inactive) | > 100 µM | > 100 µM (inactive) | > 100 µM (inactive)
N=C(N)NCCCCCCC(=O)NC(O)C(=O)NCCCCNCCCN (centres undefined) | 1280 µM (inactive) | 665 µM (inactive) | 577 µM (inactive) | 687 µM (inactive) | > 628 µM (inactive) | > 750 µM (inactive) | > 750 µM (inactive) | 748 µM (inactive) | > 750 µM (inactive) | 726 µM (inactive) | 605 µM (inactive) | 684 µM (inactive) | 695 µM (inactive) | > 562 µM (inactive) | 745 µM (inactive) | 505 µM (inactive) | 659 µM (inactive) | 656 µM | > 750 µM (inactive) | 643 µM (inactive)
CCOC(C/N=c1/nc(N(C)C)ss1)OCC | 1.48 µM (inactive) | > 27.5 µM (inactive) | 4.61 µM (inactive) | 24.6 µM (inactive) | 17.4 µM (inactive) | 19.5 µM (inactive) | 26.2 µM (inactive) | > 54.8 µM (inactive) | 26.4 µM (inactive) | 65.6 µM (inactive) | 16.3 µM (inactive) | 33.5 µM (inactive) | > 67.1 µM (inactive) | > 77.4 µM (inactive) | 2.5 µM (inactive) | 13.8 µM (inactive) | 0.593 µM (active) | 25.8 µM | > 100 µM (inactive) | 34.1 µM (inactive)
COc1ccc2c(c1OC)C(Br)CCC(Br)(Br)C2=O (centres undefined) | 1.27 µM (inactive) | 5.83 µM (inactive) | 16.3 µM (inactive) | 14 µM (inactive) | 3.17 µM (inactive) | 17.5 µM (inactive) | 1.94 µM (inactive) | 18.5 µM (inactive) | 14.6 µM (inactive) | 18.9 µM (inactive) | 2.93 µM (inactive) | 7.21 µM (inactive) | 15.5 µM (inactive) | 11.6 µM (inactive) | 9.02 µM (inactive) | 14.4 µM (inactive) | 1.75 µM (inactive) | 5.57 µM | 16.4 µM (inactive) | 14.1 µM (inactive)
C[C@@]12[C@H]3CC[C@@H]1[C@H](O)C(=O)N2CC3 | > 100 µM (inactive) | > 100 µM (inactive) | > 100 µM (inactive) | > 100 µM (inactive) | > 100 µM (inactive) | > 100 µM (inactive) | > 100 µM (inactive) | > 100 µM (inactive) | > 100 µM (inactive) | > 100 µM (inactive) | > 100 µM (inactive) | > 100 µM (inactive) | > 100 µM (inactive) | > 100 µM (inactive) | > 100 µM (inactive) | > 100 µM (inactive) | > 100 µM (inactive) | > 100 µM | > 100 µM (inactive) | > 100 µM (inactive)
O=c1ssc2ncccc12 | 48.2 µM (inactive) |  | 20.1 µM (inactive) | 0.212 µM (active) | 30.3 µM (inactive) | 26 µM (inactive) | 17.4 µM (inactive) | 46.3 µM (inactive) | 20.3 µM (inactive) | 20.7 µM (inactive) | 16.3 µM (inactive) | 28.8 µM (inactive) | 39.2 µM (inactive) | 19.8 µM (inactive) | 13.8 µM (inactive) | 10.4 µM (inactive) | 64 µM (inactive) | 12.1 µM | > 100 µM (inactive) | 30.2 µM (inactive)
